Measurements as given in PubChem BioAssay AID256 (DTP/NCI, 2004).
“And” between values parts separate entries of the source, which are not always exact repeats. Equal entries are not always repeated. Toxic doses and inconclusive results are not listed. The calls were made as follows: active = survival T/C of 150% or more; inactive = T/C below 125% in these data.

Test system: CD2F1 mice, L1210 leukemia ip, survival T/C
Assay: NCI In Vivo Anticancer Drug Screen. Data for tumor model L1210 Leukemia (intraperitoneal) in CD2F1 (CDF1) mice
Details: higher = longer survival
Method in brief: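 Compound-dosed mice with transplantable tumor versus matched vehicle controls; endpoint ratio T/C reported.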

[1] = endpoint: mean survival time, dose: 200.0 mg/kg/injection, schedule: Q01DX009 (ip), vehicle: saline with Tween-80
[2] = endpoint: mean survival time, dose: 100.0 mg/kg/injection, schedule: Q01DX009 (ip), vehicle: saline with Tween-80
[3] = endpoint: mean survival time, dose: 400.0 mg/kg/injection, schedule: Q01DX009 (ip), vehicle: saline with Tween-80

Measured: T/C

Nc1ncnc2c1ncn2C1OC(CO)C(O)C1O (stereo not given)
inactive: endpoint: mean survival time, dose: 3.12 mg/kg/injection, schedule: Q01DX009 (ip), vehicle: Klucel (hydroxypropylcellulose) (HPC) 100 % of control | endpoint: mean survival time, dose: 6.25 mg/kg/injection, schedule: Q01DX009 (ip), vehicle: Klucel (hydroxypropylcellulose) (HPC) 100 % of control | endpoint: mean survival time, dose: 12.5 mg/kg/injection, schedule: Q01DX009 (ip), vehicle: Klucel (hydroxypropylcellulose) (HPC) 95 % of control | endpoint: mean survival time, dose: 18.7 mg/kg/injection, schedule: Q01DX009 (ip), vehicle: saline 87 % of control | endpoint: mean survival time, dose: 18.75 mg/kg/injection, schedule: Q01DX009 (ip), vehicle: saline 92 % of control | endpoint: mean survival time, dose: 18.75 mg/kg/injection, schedule: Q04DX003 (ip), vehicle: saline 97 % of control | endpoint: mean survival time, dose: 25.0 mg/kg/injection, schedule: Q01DX009 (ip), vehicle: Klucel (hydroxypropylcellulose) (HPC) 95 % of control | endpoint: mean survival time, dose: 25.0 mg/kg/injection, schedule: Q04DX003 (ip), vehicle: saline 100 % of control | endpoint: mean survival time, dose: 37.5 mg/kg/injection, schedule: Q01DX009 (ip), vehicle: saline 86 % of control and 96 % of control | endpoint: mean survival time, dose: 37.5 mg/kg/injection, schedule: Q04DX003 (ip), vehicle: saline 98 % of control | endpoint: mean survival time, dose: 50.0 mg/kg/injection, schedule: Q04DX003 (ip), vehicle: saline 100 % of control | endpoint: mean survival time, dose: 75.0 mg/kg/injection, schedule: Q01DX009 (ip), vehicle: saline 96 % of control | endpoint: mean survival time, dose: 110.0 mg/kg/injection, schedule: Q03HX024 (ip), vehicle: saline with Tween-80 120 % of control | endpoint: mean survival time, dose: 118.0 mg/kg/injection, schedule: Q01DX005 (ip), vehicle: water 102 % of control | endpoint: mean survival time, dose: 118.0 mg/kg/injection, schedule: Q01DX009 (ip), vehicle: water 104 % of control | endpoint: mean survival time, dose: 150.0 mg/kg/injection, schedule: Q01DX009 (ip), vehicle: saline 96 % of control and 100 % of control | endpoint: mean survival time, dose: 177.0 mg/kg/injection, schedule: Q01DX005 (ip), vehicle: water 99 % of control | endpoint: mean survival time, dose: 177.0 mg/kg/injection, schedule: Q01DX009 (ip), vehicle: water 117 % of control | [1] 117 % of control | endpoint: mean survival time, dose: 200.0 mg/kg/injection, schedule: Q03HX024 (ip), vehicle: saline with Tween-80 124 % of control | endpoint: mean survival time, dose: 266.0 mg/kg/injection, schedule: Q01DX005 (ip), vehicle: water 106 % of control | endpoint: mean survival time, dose: 266.0 mg/kg/injection, schedule: Q01DX009 (ip), vehicle: water 112 % of control | endpoint: mean survival time, dose: 300.0 mg/kg/injection, schedule: Q01DX009 (ip), vehicle: saline with Tween-80 114 % of control | endpoint: mean survival time, dose: 300.0 mg/kg/injection, schedule: Q01DX009 (ip), vehicle: saline 119 % of control and 97 % of control | endpoint: mean survival time, dose: 400.0 mg/kg/injection, schedule: Q01DX005 (ip), vehicle: water 108 % of control | endpoint: mean survival time, dose: 400.0 mg/kg/injection, schedule: Q01DX009 (ip), vehicle: water 112 % of control | endpoint: mean survival time, dose: 450.0 mg/kg/injection, schedule: Q01DX009 (ip), vehicle: saline with Tween-80 114 % of control | endpoint: mean survival time, dose: 600.0 mg/kg/injection, schedule: Q01DX005 (ip), vehicle: water 108 % of control | endpoint: mean survival time, dose: 600.0 mg/kg/injection, schedule: Q01DX009 (ip), vehicle: saline 105 % of control | endpoint: mean survival time, dose: 600.0 mg/kg/injection, schedule: Q01DX009 (ip), vehicle: water 114 % of control | endpoint: mean survival time, dose: 900.0 mg/kg/injection, schedule: Q01DX005 (ip), vehicle: water 113 % of control | endpoint: mean survival time, dose: 900.0 mg/kg/injection, schedule: Q01DX009 (ip), vehicle: water 109 % of control | endpoint: median survival time, dose: 1.56 mg/kg/injection, schedule: Q01DX009 (ip), vehicle: saline 111 % of control | endpoint: median survival time, dose: 3.12 mg/kg/injection, schedule: Q01DX009 (ip), vehicle: saline 109 % of control | endpoint: median survival time, dose: 6.25 mg/kg/injection, schedule: Q01DX009 (ip), vehicle: saline 110 % of control | endpoint: median survival time, dose: 11.25 mg/kg/injection, schedule: Q03HX012 (ip), vehicle: saline 112 % of control | endpoint: median survival time, dose: 12.5 mg/kg/injection, schedule: Q01DX009 (ip), vehicle: saline 108 % of control | endpoint: median survival time, dose: 22.5 mg/kg/injection, schedule: Q03HX012 (ip), vehicle: saline 107 % of control | endpoint: median survival time, dose: 25.0 mg/kg/injection, schedule: Q01DX009 (ip), vehicle: saline 115 % of control | endpoint: median survival time, dose: 45.0 mg/kg/injection, schedule: Q03HX012 (ip), vehicle: saline 112 % of control | endpoint: median survival time, dose: 50.0 mg/kg/injection, schedule: Q01DX009 (ip), vehicle: saline 79 % of control | endpoint: median survival time, dose: 90.0 mg/kg/injection, schedule: Q03HX012 (ip), vehicle: saline 116 % of control | endpoint: median survival time, dose: 180.0 mg/kg/injection, schedule: Q03HX012 (ip), vehicle: saline 122 % of control

Cc1cc(=O)oc2cc(OC(=O)C(CCCCN)NC(=O)OCc3ccccc3)ccc12 (stereo not given)
inactive: endpoint: mean survival time, dose: 12.5 mg/kg/injection, schedule: Q01DX009 (ip), vehicle: other 107 % of control | endpoint: mean survival time, dose: 25.0 mg/kg/injection, schedule: Q01DX009 (ip), vehicle: other 106 % of control | endpoint: mean survival time, dose: 50.0 mg/kg/injection, schedule: Q01DX009 (ip), vehicle: other 107 % of control | endpoint: mean survival time, dose: 100.0 mg/kg/injection, schedule: Q01DX009 (ip), vehicle: other 101 % of control

Nc1nc(N)n(-c2ccccn2)n1
inactive: endpoint: mean survival time, dose: 75.0 mg/kg/injection, schedule: Q01DX001 (ip), vehicle: other 101 % of control | endpoint: mean survival time, dose: 150.0 mg/kg/injection, schedule: Q01DX001 (ip), vehicle: other 97 % of control

C/C=C(\NC1CCCCC1)C(=O)c1ccccc1
inactive: endpoint: mean survival time, dose: 100.0 mg/kg/injection, schedule: Q01DX009 (ip), vehicle: Klucel (hydroxypropylcellulose) (HPC) 100 % of control | endpoint: mean survival time, dose: 100.0 mg/kg/injection, schedule: Q04DX003 (ip), vehicle: Klucel (hydroxypropylcellulose) (HPC) 101 % of control | endpoint: mean survival time, dose: 200.0 mg/kg/injection, schedule: Q01DX009 (ip), vehicle: Klucel (hydroxypropylcellulose) (HPC) 109 % of control | endpoint: mean survival time, dose: 200.0 mg/kg/injection, schedule: Q04DX003 (ip), vehicle: Klucel (hydroxypropylcellulose) (HPC) 100 % of control | endpoint: mean survival time, dose: 400.0 mg/kg/injection, schedule: Q04DX003 (ip), vehicle: Klucel (hydroxypropylcellulose) (HPC) 97 % of control

O=C1c2ccccc2C(O)(c2[nH]nc3ccccc23)N1c1ccccc1 (stereo not given)
inactive: endpoint: mean survival time, dose: 50.0 mg/kg/injection, schedule: Q04DX002 (ip), vehicle: saline with Tween-80 103 % of control | endpoint: mean survival time, dose: 100.0 mg/kg/injection, schedule: Q04DX002 (ip), vehicle: saline with Tween-80 103 % of control | endpoint: mean survival time, dose: 200.0 mg/kg/injection, schedule: Q04DX002 (ip), vehicle: saline with Tween-80 113 % of control | endpoint: mean survival time, dose: 400.0 mg/kg/injection, schedule: Q04DX002 (ip), vehicle: saline with Tween-80 106 % of control

C(=C(\C[P+](c1ccccc1)(c1ccccc1)c1ccccc1)c1ccccc1)/c1ccccc1
inactive: endpoint: mean survival time, dose: 1.25 mg/kg/injection, schedule: Q01DX009 (ip), vehicle: saline with Tween-80 104 % of control | endpoint: mean survival time, dose: 2.5 mg/kg/injection, schedule: Q01DX009 (ip), vehicle: saline with Tween-80 102 % of control | endpoint: mean survival time, dose: 5.0 mg/kg/injection, schedule: Q01DX009 (ip), vehicle: saline with Tween-80 97 % of control

CC(C)(C)C1CCC(S(=O)c2ccc([N+](=O)[O-])cc2[N+](=O)[O-])CC1 (stereo not given)
inactive: [2] 90 % of control | endpoint: mean survival time, dose: 100.0 mg/kg/injection, schedule: Q04DX003 (ip), vehicle: saline with Tween-80 94 % of control | [1] 91 % of control | endpoint: mean survival time, dose: 200.0 mg/kg/injection, schedule: Q04DX003 (ip), vehicle: saline with Tween-80 98 % of control | [3] 86 % of control | endpoint: mean survival time, dose: 400.0 mg/kg/injection, schedule: Q04DX003 (ip), vehicle: saline with Tween-80 88 % of control

CCCCCCCCCCCC(C)(O)C#N (stereo not given)
inactive: endpoint: mean survival time, dose: 100.0 mg/kg/injection, schedule: Q04DX002 (ip), vehicle: saline 96 % of control | endpoint: mean survival time, dose: 200.0 mg/kg/injection, schedule: Q04DX002 (ip), vehicle: saline 92 % of control | endpoint: mean survival time, dose: 400.0 mg/kg/injection, schedule: Q04DX002 (ip), vehicle: saline 100 % of control

Nc1nc2c(c(=O)[nH]1)CC(=O)N2
inactive: endpoint: median survival time, dose: 50.0 mg/kg/injection, schedule: Q01DX005 (ip), vehicle: saline 98 % of control | endpoint: median survival time, dose: 100.0 mg/kg/injection, schedule: Q01DX005 (ip), vehicle: saline 100 % of control | endpoint: median survival time, dose: 200.0 mg/kg/injection, schedule: Q01DX005 (ip), vehicle: saline 104 % of control

COC(=O)C(Br)C(OC)c1ccc(Cl)cc1 (stereo not given)
inactive: [2] 101 % of control | endpoint: mean survival time, dose: 100.0 mg/kg/injection, schedule: Q04DX003 (ip), vehicle: saline sonified 100 % of control | [1] 95 % of control | endpoint: mean survival time, dose: 200.0 mg/kg/injection, schedule: Q04DX003 (ip), vehicle: saline sonified 101 % of control | [3] 97 % of control | endpoint: mean survival time, dose: 400.0 mg/kg/injection, schedule: Q04DX003 (ip), vehicle: saline sonified 95 % of control

NC(N)=NC(N)=Nc1ccc([As](=O)(O)O)c(O)c1
inactive: endpoint: mean survival time, dose: 100.0 mg/kg/injection, schedule: Q01DX009 (ip), vehicle: saline sonified 111 % of control
